The source made the active and inactive calls. The rule behind the calls is not given here.
What was measured:
[1] = system: HepG2; assay: Induction of apoptosis in human HepG2 cells assessed as early apoptotic cells at 0.4 uM measured after 48 hrs by Annexin V-FITC/propidium iodide staining based flow cytometry (reference value: 1.81%); assay type: functional
[2] = Acute toxicity in ICR mouse assessed as pathological change in spleen at 100 mg/kg, ip measured after 6 days; assay type: organism-based; settings: in vivo, 144 h, time 6 day
[3] = system: HepG2; assay: Induction of ROS generation in human HepG2 cells measured after 48 hrs by DCFH-DA probe based fluorescence microscopy; assay type: functional, cell-based; settings: dose 0.2-0.8 µM, DDE = dose-dependent effect
[4] = system: HepG2; assay: Induction of apoptosis in human HepG2 cells measured after 48 hrs by Annexin V-FITC/propidium iodide staining based flow cytometry; assay type: functional, cell-based; settings: dose 0.2-0.8 µM, DDE = dose-dependent effect
[5] = system: HepG2; assay: Antitumor activity against human HepG2 cells xenografted in BALB/c nude mouse assessed as tumor growth inhibition at 10 mg/kg, ip administered once daily for 16 days relative to control; assay type: functional; settings: HepG2, 384 h, time 16 day, read-out: TGI
[6] = Acute toxicity in ICR mouse assessed as body weight loss at 100 mg/kg, ip measured for 6 days; assay type: organism-based; settings: in vivo, 144 h, time 6 day
[7] = system: HepG2; assay: Induction of apoptosis in human HepG2 cells assessed as increase in cleaved caspase-3 expression at 0.2 to 0.8 uM measured after 48 hrs by Western blot analysis; assay type: functional, cell-based; settings: dose 0.2-0.8 µM
[8] = system: Bel-7402; assay: Cell cycle arrest in human Bel-7402 cells assessed as accumulation at G2/M phase at 0.5 uM measured after 24 hrs by propidium iodide staining based flow cytometry (reference value: 30.29%); assay type: functional
[9] = system: HepG2; assay: Cell cycle arrest in human HepG2 cells assessed as accumulation at G2/M phase at 0.2 uM measured after 24 hrs by propidium iodide staining based flow cytometry (reference value: 19.93%); assay type: functional
[10] = system: Bel-7402; assay: Antiproliferative activity against human Bel-7402 cells measured after 72 hrs by MTT assay; assay type: functional, cell-based; settings: Bel-7402, 72 h
[11] = system: HepG2; assay: Induction of apoptosis in human HepG2 cells assessed as early apoptotic cells at 0.2 uM measured after 48 hrs by Annexin V-FITC/propidium iodide staining based flow cytometry (reference value: 1.81%); assay type: functional
[12] = Acute toxicity in ICR mouse assessed as change in creatinine level at 100 mg/kg, ip measured after 6 days; assay type: organism-based; settings: in vivo, 144 h, time 6 day
[13] = Toxicity in human HepG2 cells xenografted BALB/c nude mouse assessed as change in body weight at 5 to 10 mg/kg, ip administered once daily for 16 days measured 3 times per week during compound dosing; assay type: organism-based; settings: in vivo, 384 h, dose 5-10 mg/kg, time 16 day
[14] = AUC (0 to t) in ICR mouse at 10 mg/kg, iv; assay type: ADME, organism-based; design: dose 10 mg/kg, route iv; settings: in vivo
[15] = system: Bel-7402; assay: Cell cycle arrest in human Bel-7402 cells assessed as accumulation at G2/M phase at 2 uM measured after 24 hrs by propidium iodide staining based flow cytometry (reference value: 30.29%); assay type: functional
[16] = system: HepG2; assay: Inhibition of colony formation in human HepG2 cells assessed as reduction in colony size at 0.2 to 0.8 uM treated every 3 days for 14 days by crystal violet staining based microscopy; assay type: functional, cell-based; settings: dose 0.2-0.8 µM, time 14.0 day
[17] = system: HepG2; assay: Induction of apoptosis in human HepG2 cells assessed as viable cells at 0.4 uM measured after 48 hrs by Annexin V-FITC/propidium iodide staining based flow cytometry (reference value: 94.5%); assay type: functional; settings: read-out: Activity
[18] = system: HepG2; assay: Antitumor activity against human HepG2 cells xenografted in BALB/c nude mouse assessed as reduction in Ki-67 expression at 5 to 10 mg/kg, ip administered once daily for 16 days measured post-last dose by immunohistochemical analysis; assay type: functional, organism-based; settings: dose 5-10 mg/kg, time 16.0 day
[19] = Cytotoxicity against human L02 cells measured after 72 hrs by MTT assay; assay type: toxicity, cell-based
[20] = Acute toxicity in ICR mouse assessed as change in uric acid level at 100 mg/kg, ip measured after 6 days; assay type: organism-based; settings: in vivo, 144 h, time 6 day
[21] = system: PANC-1; assay: Antiproliferative activity against human PANC-1 cells measured after 72 hrs by MTT assay; assay type: functional, cell-based; settings: PANC-1, 72 h
[22] = system: Bel-7402; assay: Cell cycle arrest in human Bel-7402 cells assessed as accumulation at S phase at 1 uM measured after 24 hrs by propidium iodide staining based flow cytometry (reference value: 31%); assay type: functional
[23] = system: Bel-7402; assay: Cell cycle arrest in human Bel-7402 cells assessed as accumulation at S phase at 2 uM measured after 24 hrs by propidium iodide staining based flow cytometry (reference value: 31%); assay type: functional
[24] = Toxicity in human HepG2 cells xenografted BALB/c nude mouse assessed as adverse effect at 5 to 10 mg/kg, ip administered once daily for 16 days; assay type: organism-based; settings: in vivo, 384 h, dose 5-10 mg/kg, time 16 day
[25] = system: HepG2; assay: Induction of apoptosis in human HepG2 cells assessed as necrotic cells at 0.8 uM measured after 48 hrs by Annexin V-FITC/propidium iodide staining based flow cytometry (reference value: 2.04%); assay type: functional
[26] = system: HepG2; assay: Cell cycle arrest in human HepG2 cells assessed as accumulation at G2/M phase at 0.4 uM measured after 24 hrs by propidium iodide staining based flow cytometry (reference value: 19.93%); assay type: functional
[27] = Acute toxicity in ICR mouse assessed as change in creatine kinase level at 100 mg/kg, ip measured after 6 days; assay type: organism-based; settings: in vivo, 144 h, time 6 day
[28] = system: HepG2; assay: Induction of apoptosis in human HepG2 cells assessed as early apoptotic cells at 0.8 uM measured after 48 hrs by Annexin V-FITC/propidium iodide staining based flow cytometry (reference value: 1.81%); assay type: functional
[29] = system: Bel-7402; assay: Cell cycle arrest in human Bel-7402 cells assessed as accumulation at S phase at 0.5 uM measured after 24 hrs by propidium iodide staining based flow cytometry (reference value: 31%); assay type: functional
[30] = system: HepG2; assay: Cell cycle arrest in human HepG2 cells assessed as accumulation at G1 phase at 0.4 uM measured after 24 hrs by propidium iodide staining based flow cytometry (reference value: 42.27%); assay type: functional
[31] = MRT (0 to t) in ICR mouse at 10 mg/kg, iv; assay type: ADME, organism-based; settings: in vivo
[32] = system: HepG2; assay: Induction of apoptosis in human HepG2 cells assessed as viable cells at 0.2 uM measured after 48 hrs by Annexin V-FITC/propidium iodide staining based flow cytometry (reference value: 94.5%); assay type: functional; settings: read-out: Activity
[33] = system: Bel-7402; assay: Cell cycle arrest in human Bel-7402 cells assessed as accumulation at G2/M phase at 1 uM measured after 24 hrs by propidium iodide staining based flow cytometry (reference value: 30.29%); assay type: functional
[34] = system: HepG2; assay: Induction of apoptosis in human HepG2 cells assessed as late apoptotic cells at 0.2 uM measured after 48 hrs by Annexin V-FITC/propidium iodide staining based flow cytometry (reference value: 1.66%); assay type: functional
[35] = system: HepG2; assay: Cell cycle arrest in human HepG2 cells assessed as accumulation at G1 phase at 0.2 uM measured after 24 hrs by propidium iodide staining based flow cytometry (reference value: 42.27%); assay type: functional
[36] = system: HepG2; assay: Antitumor activity against human HepG2 cells xenografted in BALB/c nude mouse assessed as tumor growth inhibition at 5 mg/kg, ip administered once daily for 16 days relative to control; assay type: functional; settings: HepG2, 384 h, time 16 day, read-out: TGI

Structure (SMILES): C[C@H]1CCC/C=C/[C@@H]2C[C@H](O)C[C@H]2[C@H](OC(=O)/C=C/c2ccc(N(C)C)cc2)/C=C/C(=O)O1
- Activity [1]: 1.45%
- Activity [2]: Non-Toxic
- Activity [3]: Dde
- Activity [4]: Dde
- inhibition in vivo at 10 mg/kg [5]: 46.2%
- Activity [6]: Toxic
- Activity [7]: Active
- Activity [8]: 27.62%
- Activity [9]: 22.32%
- IC50 [10]: 840 nM
- Activity [11]: 2.03%
- Activity [12]: Non-Toxic
- Activity [13]: Non-Toxic
- AUC(0-t) [14]: 4010 ng·h/mL
- Activity [15]: 18.82%
- inhibition [16]: Active
- viability at 0.4 µM [17]: 53.1%
- Activity [18]: Active
- IC50 at 72 h [19]: 2810 nM
- Activity [20]: Non-Toxic
- IC50 [21]: 640 nM
- Activity [22]: 19.59%
- Activity [23]: 20.69%
- Activity [24]: Non-Toxic
- Activity [25]: 39.85%
- Activity [26]: 20.88%
- Activity [27]: Non-Toxic
- Activity [28]: 1.49%
- Activity [29]: 21.14%
- Activity [30]: 57.76%
- MRT last [31]: 19.2 min
- viability at 0.2 µM [32]: 66.1%
- Activity [33]: 26.22%
- Activity [34]: 3.05%
- Activity [35]: 48.26%
- inhibition in vivo at 5 mg/kg [36]: 34.3%
